Measured values as given in patent publication US6479531B1, “Gastrin and cholecystokinin receptor ligands” (James Black Foundation Limited, priority 1998, dated 2002).

Tests used:
[1] = molecular target: T1, gastrin receptor (Rattus norvegicus, UniProt P30553); assay: gastrin antagonist activity in immature rat stomach assay (pentagastrin dose-response, acid secretion); conditions: isolated immature rat stomach, cumulative pentagastrin dose-response curves, read-out: Gastrin pKb (converted)
T1 construct: The stomach was excised and flushed with ca. 1 ml of unbuffered physiological saline solution; from tissue; host or cells: isolated whole stomach of immature rats (ca. 21 days old)
T1 sequence (P30553 1-452): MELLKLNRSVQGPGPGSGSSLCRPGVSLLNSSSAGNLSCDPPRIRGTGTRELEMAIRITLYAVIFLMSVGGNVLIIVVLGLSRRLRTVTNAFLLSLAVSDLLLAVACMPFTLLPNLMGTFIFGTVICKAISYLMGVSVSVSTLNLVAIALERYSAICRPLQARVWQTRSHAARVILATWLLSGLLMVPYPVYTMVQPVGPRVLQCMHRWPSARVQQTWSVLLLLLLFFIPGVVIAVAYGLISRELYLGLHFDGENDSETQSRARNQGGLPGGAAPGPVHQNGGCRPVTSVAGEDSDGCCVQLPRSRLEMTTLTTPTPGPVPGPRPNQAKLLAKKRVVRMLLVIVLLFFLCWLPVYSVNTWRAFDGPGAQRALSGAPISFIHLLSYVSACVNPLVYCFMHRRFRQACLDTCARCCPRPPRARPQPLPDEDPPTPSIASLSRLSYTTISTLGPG
Summary of the method: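 Isolated, lumen-perfused stomach from immature rats (33-50 g, ca. 21 days) in a 37° organ bath with 3×10^−8 M 5-methylfurmethide, gassed 95% O2/5% CO2. Compound added serosally after 120 min stabilisation; cumulative pentagastrin dose-response curves begun 60 min later, acid secretion followed by perfusate pH.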

[2] = molecular target: T2, CCKB receptor (Mus musculus, UniProt P56481); assay: CCKB receptor radioligand binding assay in mouse cortical membranes; conditions: [125I]-CCK8(S) 200 pM, 150 min at 21±3°, read-out: CCKB pKi (converted)
T2 construct: The whole brains from male mice (CD1 22-25 g; Charles River) were removed; from tissue; host or cells: cerebral cortex membranes of male CD1 mice
T2 sequence (P56481 1-453): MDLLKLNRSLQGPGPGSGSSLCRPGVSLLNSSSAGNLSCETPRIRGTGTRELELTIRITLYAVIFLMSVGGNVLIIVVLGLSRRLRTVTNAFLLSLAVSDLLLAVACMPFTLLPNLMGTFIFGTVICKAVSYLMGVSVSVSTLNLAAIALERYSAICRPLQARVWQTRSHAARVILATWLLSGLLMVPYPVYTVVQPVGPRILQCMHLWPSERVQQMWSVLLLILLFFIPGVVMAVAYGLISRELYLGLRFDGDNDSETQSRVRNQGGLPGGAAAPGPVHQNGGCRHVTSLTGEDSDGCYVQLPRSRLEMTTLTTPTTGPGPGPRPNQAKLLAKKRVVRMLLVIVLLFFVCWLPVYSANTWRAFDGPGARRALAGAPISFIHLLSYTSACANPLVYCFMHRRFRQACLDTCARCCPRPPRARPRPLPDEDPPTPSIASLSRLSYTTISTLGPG
Summary of the method: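 Bound radioactivity was gamma-counted after rapid GF/B filtration and cold 50 mM Tris-HCl (pH 7.4) washes. The tissue was cerebral cortex from male CD1 mice, prepared as twice-centrifuged membranes in pH 7.2 HEPES/NaCl/KCl/MgCl2/EDTA buffer with bacitracin at 20 mg/ml original wet weight.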

| Structure (SMILES) | Kb [1] [nM] | Ki [2] [nM] |
| --- | --- | --- |
| O=C(O)c1cccc(NC(=O)c2nc(-c3ccccc3C(F)(F)F)[nH]c2CCC2CCCCCC2)c1 [Example 40, 3-{[5-(2-Cycloheptyl-ethyl)-2-(2-trifluoromethyl-phenyl)-1H-imidazole-4-carbonyl]-amino}-benzoic Acid] | 204 | 933 |
| Cc1ccccc1-c1nc(C(=O)Nc2cccc(C(=O)O)c2)c(CCC23CC4CC(CC(C4)C2)C3)n1C [Example 73, 3-{[5-(2-Adamantan-1-yl-ethyl)-1-methyl-2-o-tolyl-1H-imidazole-4-carbonyl]-amino}-benzoic Acid] | 6.61 | 417 |
| CC1(C)C2CC=C(c3nc(C(=O)Nc4cccc(C(=O)O)c4)c(CCC45CC6CC(CC(C6)C4)C5)[nH]3)C1C2 (centres unmarked) [Example 192, 3-{[5-(2-Adamantan-1-yl-ethyl)-2-(6,6-dimethyl-bicyclo[3.1.1]hept-2-en-2-yl)-1H-imidazole-4-carbonyl]-amino}-benzoic Acid] | 141 | 66.1 |
| O=C(O)c1cccc(NC(=O)c2nc(-c3ccccc3F)[nH]c2CCC23CC4CC(CC(C4)C2)C3)c1 [Example 50, 3-{[5-(2-Adamantan-1-yl-ethyl)-2-(2-fluoro-phenyl)-1H-imidazole-4-carbonyl]-amino}-benzoic Acid] | 26.3 | 331 |
| O=C(O)c1cccc(NC(=O)c2nc(C3CC=CCC3)[nH]c2CCC23CC4CC(CC(C4)C2)C3)c1 (centres unmarked) [Example 195, 3-{[5-(2-Adamantan-1-yl-ethyl)-2-cyclohex-3-enyl-1H-imidazole-4-carbonyl]-amino}-benzoic Acid] | 6.61 | 42.7 |
| Cc1nc(C(=O)Nc2cccc(C(=O)O)c2)c(CCC23CC4CC(CC(C4)C2)C3)[nH]1 [Example 108, 3-{[5-(2-Adamantan-1-yl-ethyl)-2-methyl-1H-imidazole-4-carbonyl]-amino}-benzoic Acid] | 1550 | 2340 |
| O=C(O)c1cccc(NC(=O)c2nc(-c3ccccc3Br)[nH]c2CCC23CC4CC(CC(C4)C2)C3)c1 [Example 59, 3-{[5-(2-Adamantan-1-yl-ethyl)-2-(2-bromo-phenyl)-1H-imidazole-4-carbonyl]-amino}-benzoic Acid] | 57.5 | 251 |
| CC1=C(Cc2nc(C(=O)Nc3cccc(C(=O)O)c3)c(CCC34CC5CC(CC(C5)C3)C4)[nH]2)C(C)(C)CCC1 [Example 202, 3-{[5-(2-Adamantan-1-yl-ethyl)-2-(2,6,6-trimethyl-cyclohex-1-enylmethyl)-1H-imidazole-4-carbonyl]-amino)-benzoic Acid] | 28.8 | 112 |
| CCCC(CCC)c1nc(C(=O)Nc2cccc(C(=O)O)c2)c(CCC23CC4CC(CC(C4)C2)C3)[nH]1 [Example 125, 3-{[5-(2-Adamantan-1-yl-ethyl)-2-(1-propyl-butyl)-1H-imidazole-4-carbonyl]-amino}-benzoic Acid] | 2.29 | 105 |
| O=C(O)c1cc(NC(=O)c2nc(C3CCCCC3)[nH]c2CCC23CC4CC(CC(C4)C2)C3)cc(C(=O)O)c1 [Example 129, 5-{[5-(2-Adamantan-1-yl-ethyl)-2-cyclohexyl-1H-imidazole-4-carbonyl]-amino}-isophthalic Acid] | 380 | 219 |
| O=C(O)c1cccc(NC(=O)c2nc([C@@H]3CCCN3)[nH]c2CCC23CC4CC(CC(C4)C2)C3)c1 [Example 136, (S)-3-{[5-(2-Adamantan-1-yl-ethyl)-2-pyrrolidin-2-yl-1H-imidazole-4-carbonyl]-amino}-benzoic Acid] | 148 | 4170 |
| Cc1ccc(NC(=O)c2nc(C3CCC4CC3C4(C)C)[nH]c2CCC23CC4CC(CC(C4)C2)C3)cc1C(=O)O (centres unmarked) [Example 191, 5-{[5-(2-Adamantan-1-yl-ethyl)-2-(6,6-dimethyl-bicyclo[3.1.1]hept-2-yl)-1H-imidazole-4-carbonyl]-amino}-2-methyl-benzoic Acid] | 67.6 | 28.8 |
| O=C(O)c1cccc(NC(=O)c2nc(-c3ccccc3)[nH]c2CC2CCCCCC2)c1 [Example 26, 3-[(5-Cycloheptylmethyl-2-phenyl-1H-imidazole-4-carbonyl)-amino]-benzoic Acid] | 407 | 1480 |
| Cc1c(NC(=O)c2nc(C3CCCCC3)[nH]c2CCC23CC4CC(CC(C4)C2)C3)cccc1C(=O)O [Example 253, 3-{[5-(2-Adamantan-1-yl-ethyl)-2-cyclohexyl-1H-imidazole-4-carbonyl]-amino}-2-methyl-benzoic Acid] | 64.6 | 55 |
| O=C(O)c1cc(NC(=O)c2cc(-c3ccc4ccccc4c3)[nH]c2CC2CCCCCC2)cc(C(=O)O)c1 [Example 11, 5-[(2-Cycloheptylmethyl-5-naphthalene-2-yl-1H-pyrrole-3-carbonyl)-amino]-isophthalic Acid] | 1620 | 87.1 |
| CC1(c2nc(C(=O)Nc3ccc(F)c(C(=O)O)c3)c(CCC34CC5CC(CC(C5)C3)C4)[nH]2)CCCCC1 [Example 201, 5-{[5-(2-Adamantan-1-yl-ethyl)-2-(1-methyl-cyclohexyl)-1H-imidazole-4-carbonyl]-amino]-2-fluoro-benzoic Acid] | 4.9 | 8.71 |
| CC(C(=O)O)c1cccc(NC(=O)c2nc(C3CCCCC3)[nH]c2CCC23CC4CC(CC(C4)C2)C3)c1 (racemic) [Example 255, (±)-2-(3-{[5-(2-Adamantan-1-yl-ethyl)-2-cyclohexyl-1H-imidazole-4-carbonyl]-amino}-phenyl)-propionic Acid] | 178 | 1.41 |
| O=C(O)c1cccc(NC(=O)c2nc(C3CCCCC3)[nH]c2CCCC23CC4CC(CC(C4)C2)C3)c1 [Example 171, 3-{[5-(3-Adamantan-1-yl-propyl)-2-cyclohexyl-1H-imidazole-4-carbonyl]-amino}-benzoic Acid] | 38.9 | 141 |
| O=C(O)c1cccc(NC(=O)c2nc(C3CCCO3)[nH]c2CCC23CC4CC(CC(C4)C2)C3)c1 (centres unmarked) [Example 186, 3-{[5-(2-Adamantan-1-yl-ethyl)-2-(tetrahydro-furan-2-yl)-1H-imidazole-4-carbonyl]-amino}-benzoic Acid] | 11 | 155 |
| O=C(O)Cc1cccc(NC(=O)c2nc(C3CCCCC3)[nH]c2CCC23CC4CC(CC(C4)C2)C3)c1 [Example 84, (3-{[5-(2-Adamantan-1-yl-ethyl)-2-cyclohexyl-1H-imidazole-4-carbonyl]-amino}-phenyl)-acetic Acid] | 162 | 1.02 |
| Cc1ccc(NC(=O)c2nc(-c3cccc(Cl)c3Cl)[nH]c2CCC23CC4CC(CC(C4)C2)C3)cc1C(=O)O [Example 150, 5-{[5-(2-Adamantan-1-yl-ethyl)-2-(2,3-dichlorophenyl)-1H-imidazole-4-carbonyl]-amino}-2-methyl-benzoic Acid] | 646 | 145 |
| O=C(O)c1cc(NC(=O)c2[nH]c(-c3ccccc3)nc2CC23CC4CC(CC(C4)C2)C3)cc(C(=O)O)c1 [Example 37, 5-[(5-Adamantan-1-ylmethyl-2-phenyl-1H-imidazole-4-carbonyl)-amino]-isophthalic Acid] | 1260 | 209 |
| Cc1ccc(NC(=O)c2nc(C3(C)CCCCC3)[nH]c2COC23CC4CC(CC(C4)C2)C3)cc1C(=O)O [Example 220, 5-([5-(Adamantan-1-yloxymethyl)-2-(1-methyl-cyclohexyl)-1H-imidazole-4-carbonyl]-amino}-2-methyl-benzoic Acid] | 0.468 | 2.95 |
| O=C(O)c1cccc(NC(=O)c2nc(CC3CCCCC3)[nH]c2CCC23CC4CC(CC(C4)C2)C3)c1 [Example 193, 3-{[5-(2-Adamantan-1-yl-ethyl)-2-cyclohexylmethyl-1H-imidazole-4-carbonyl]-amino}-benzoic Acid] | 20.4 | 57.5 |
| O=C(O)c1cccc(NC(=O)c2[nH]c(C3CCCC3)nc2CCC23CC4CC(CC(C4)C2)C3)c1 [Example 196, 3-{[5-(2-Adamantan-1-ethyl)-2-cyclopentyl-1H-imidazole-4-carbonyl]-amino}-benzoic Acid] | 7.08 | 38 |
